Experimental data: PubChem BioAssay (NCI)
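Assay format: 96-well plates, 48-hour exposure. Abbreviation: GI50, concentration required for 50% inhibition of growth. TGI: concentration producing complete growth inhibition.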

Legend:
Test in all cases: NCI tumour cell line growth inhibition, 48 h
786-0 renal = test system: 786-0 renal
A498 renal = test system: A498 renal
A549 NSCLC = test system: A549 NSCLC
ACHN renal = test system: ACHN renal
BT-549 breast = test system: BT-549 breast
CAKI-1 renal = test system: CAKI-1 renal
CCRF-CEM leukemia = test system: CCRF-CEM leukemia
COLO 205 colon = test system: COLO 205 colon
DU-145 prostate = test system: DU-145 prostate
EKVX NSCLC = test system: EKVX NSCLC
HCC-2998 colon = test system: HCC-2998 colon
HCT-116 colon = test system: HCT-116 colon
HCT-15 colon = test system: HCT-15 colon
HL-60(TB) leukemia = test system: HL-60(TB) leukemia
HOP-62 NSCLC = test system: HOP-62 NSCLC
HOP-92 NSCLC = test system: HOP-92 NSCLC
HS 578T breast = test system: HS 578T breast
HT29 colon = test system: HT29 colon
IGROV1 ovarian = test system: IGROV1 ovarian
K-562 leukemia = test system: K-562 leukemia
KM12 colon = test system: KM12 colon
LOX IMVI melanoma = test system: LOX IMVI melanoma
M14 melanoma = test system: M14 melanoma
MALME-3M melanoma = test system: MALME-3M melanoma
MCF7 breast = test system: MCF7 breast
MDA-MB-231 breast = test system: MDA-MB-231 breast
MDA-MB-435 = test system: MDA-MB-435
MOLT-4 leukemia = test system: MOLT-4 leukemia
NCI-H226 lung = test system: NCI-H226 lung
NCI-H23 lung = test system: NCI-H23 lung
NCI-H460 lung = test system: NCI-H460 lung
NCI-H522 lung = test system: NCI-H522 lung
NCI/ADR-RES ovarian = test system: NCI/ADR-RES ovarian
OVCAR-3 ovarian = test system: OVCAR-3 ovarian
OVCAR-4 ovarian = test system: OVCAR-4 ovarian
OVCAR-5 ovarian = test system: OVCAR-5 ovarian
OVCAR-8 ovarian = test system: OVCAR-8 ovarian
PC-3 prostate = test system: PC-3 prostate
RPMI-8226 leukemia = test system: RPMI-8226 leukemia
RXF 393 renal = test system: RXF 393 renal
SF-268 CNS = test system: SF-268 CNS
SF-295 CNS = test system: SF-295 CNS
SF-539 CNS = test system: SF-539 CNS
SK-MEL-2 melanoma = test system: SK-MEL-2 melanoma
SK-MEL-28 melanoma = test system: SK-MEL-28 melanoma
SK-MEL-5 melanoma = test system: SK-MEL-5 melanoma
SK-OV-3 ovarian = test system: SK-OV-3 ovarian
SN12C renal = test system: SN12C renal
SNB-19 CNS = test system: SNB-19 CNS
SNB-75 CNS = test system: SNB-75 CNS
SR leukemia = test system: SR leukemia
SW-620 colon = test system: SW-620 colon
T-47D breast = test system: T-47D breast
TK-10 renal = test system: TK-10 renal
U251 CNS = test system: U251 CNS
UACC-257 melanoma = test system: UACC-257 melanoma
UACC-62 melanoma = test system: UACC-62 melanoma
UO-31 renal = test system: UO-31 renal

Cc1cc(C)c(O)c(CN(C)Cc2cc(Cl)cc(Cl)c2O)c1
GI50 (786-0 renal): 9.38 µM
TGI (786-0 renal): 28.6 µM
GI50 (A498 renal): 5.69 µM
TGI (A498 renal): 21.9 µM
GI50 (A549 NSCLC): 5.41 µM
TGI (A549 NSCLC): 28.5 µM
GI50 (ACHN renal): 4.73 µM
TGI (ACHN renal): 24 µM
GI50 (BT-549 breast): 11.8 µM
TGI (BT-549 breast): 27.3 µM
GI50 (CAKI-1 renal): 2.77 µM
TGI (CAKI-1 renal): 12.2 µM
GI50 (CCRF-CEM leukemia): 2.7 µM
TGI (CCRF-CEM leukemia): 14.8 µM
GI50 (COLO 205 colon): 4.99 µM
TGI (COLO 205 colon): 15.3 µM
GI50 (DU-145 prostate): 6.37 µM
TGI (DU-145 prostate): 20.8 µM
GI50 (EKVX NSCLC): 4.52 µM
TGI (EKVX NSCLC): 30.7 µM
GI50 (HCC-2998 colon): 4.8 µM
TGI (HCC-2998 colon): 17.4 µM
GI50 (HCT-116 colon): 3.23 µM
TGI (HCT-116 colon): 10.8 µM
GI50 (HCT-15 colon): 3.41 µM
TGI (HCT-15 colon): 16.8 µM
GI50 (HL-60(TB) leukemia): 4 µM
TGI (HL-60(TB) leukemia): 33 µM
GI50 (HOP-62 NSCLC): 5.46 µM
TGI (HOP-62 NSCLC): 18.3 µM
GI50 (HOP-92 NSCLC): 3.07 µM
TGI (HOP-92 NSCLC): 13.3 µM
GI50 (HS 578T breast): 5.41 µM
TGI (HS 578T breast): 32.8 µM
GI50 (HT29 colon): 5.1 µM
TGI (HT29 colon): 17.4 µM
GI50 (IGROV1 ovarian): 2.2 µM
TGI (IGROV1 ovarian): 8.85 µM
GI50 (K-562 leukemia): 3.54 µM
TGI (K-562 leukemia): > 100 µM
GI50 (KM12 colon): 5.31 µM
TGI (KM12 colon): 17.7 µM
GI50 (LOX IMVI melanoma): 4.06 µM
TGI (LOX IMVI melanoma): 17.1 µM
GI50 (M14 melanoma): 9.17 µM
TGI (M14 melanoma): 22.8 µM
GI50 (MALME-3M melanoma): 6.13 µM
TGI (MALME-3M melanoma): 20.6 µM
GI50 (MCF7 breast): 3.28 µM
TGI (MCF7 breast): 14.3 µM
GI50 (MDA-MB-231 breast): 2.97 µM
TGI (MDA-MB-231 breast): 12.8 µM
GI50 (MDA-MB-435): 6.16 µM
TGI (MDA-MB-435): 30.2 µM
GI50 (MOLT-4 leukemia): 3.45 µM
TGI (MOLT-4 leukemia): 34.7 µM
GI50 (NCI-H226 lung): 6.56 µM
TGI (NCI-H226 lung): 23.1 µM
GI50 (NCI-H23 lung): 3.91 µM
TGI (NCI-H23 lung): 17.3 µM
GI50 (NCI-H460 lung): 3.49 µM
TGI (NCI-H460 lung): 13.7 µM
GI50 (NCI-H522 lung): 2.22 µM
TGI (NCI-H522 lung): 6.14 µM
GI50 (NCI/ADR-RES ovarian): 2.89 µM
TGI (NCI/ADR-RES ovarian): 12.5 µM
GI50 (OVCAR-3 ovarian): 2.4 µM
TGI (OVCAR-3 ovarian): 8.16 µM
GI50 (OVCAR-4 ovarian): 2.62 µM
TGI (OVCAR-4 ovarian): 10.6 µM
GI50 (OVCAR-5 ovarian): 6.12 µM
TGI (OVCAR-5 ovarian): 20.5 µM
GI50 (OVCAR-8 ovarian): 2.78 µM
TGI (OVCAR-8 ovarian): 12.1 µM
GI50 (PC-3 prostate): 6.97 µM
TGI (PC-3 prostate): 42.3 µM
GI50 (RPMI-8226 leukemia): 3.12 µM
TGI (RPMI-8226 leukemia): 23.2 µM
GI50 (RXF 393 renal): 7.34 µM
TGI (RXF 393 renal): 23.6 µM
GI50 (SF-268 CNS): 3.26 µM
TGI (SF-268 CNS): 19.2 µM
GI50 (SF-295 CNS): 2.18 µM
TGI (SF-295 CNS): 6.18 µM
GI50 (SF-539 CNS): 6.43 µM
TGI (SF-539 CNS): 25.1 µM
GI50 (SK-MEL-2 melanoma): 6.52 µM
TGI (SK-MEL-2 melanoma): 19.6 µM
GI50 (SK-MEL-28 melanoma): 11.4 µM
TGI (SK-MEL-28 melanoma): 24 µM
GI50 (SK-MEL-5 melanoma): 5.57 µM
TGI (SK-MEL-5 melanoma): 18.2 µM
GI50 (SK-OV-3 ovarian): 6.48 µM
TGI (SK-OV-3 ovarian): 33 µM
GI50 (SN12C renal): 4.81 µM
TGI (SN12C renal): 20.4 µM
GI50 (SNB-19 CNS): 4.82 µM
TGI (SNB-19 CNS): 20.8 µM
GI50 (SNB-75 CNS): 11.5 µM
TGI (SNB-75 CNS): 36.4 µM
GI50 (SR leukemia): 3.69 µM
TGI (SR leukemia): 24.5 µM
GI50 (SW-620 colon): 3.71 µM
TGI (SW-620 colon): 14.3 µM
GI50 (T-47D breast): 4.07 µM
TGI (T-47D breast): 15.2 µM
GI50 (TK-10 renal): 4.95 µM
TGI (TK-10 renal): 25.6 µM
GI50 (U251 CNS): 4.01 µM
TGI (U251 CNS): 17.1 µM
GI50 (UACC-257 melanoma): 3.14 µM
TGI (UACC-257 melanoma): 12.1 µM
GI50 (UACC-62 melanoma): 3.42 µM
TGI (UACC-62 melanoma): 13.1 µM
GI50 (UO-31 renal): 1.64 µM
TGI (UO-31 renal): 6.58 µM
